# Data as given in PubChem BioAssay (NCI).
#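 Interpolation was linear, between the two tested concentrations surrounding the appropriate level; five concentrations were tested over 48 hours in 96-well plates. Here, GI50 denotes the concentration required for 50% inhibition of growth. TGI: concentration producing complete growth inhibition.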
# What was measured:
# Assay in all cases: growth of human tumour cells (NCI), 48 h
# [1] = system: 786-0 renal
# [2] = system: A498 renal
# [3] = system: A549 NSCLC
# [4] = system: ACHN renal
# [5] = system: BT-549 breast
# [6] = system: CAKI-1 renal
# [7] = system: CCRF-CEM leukemia
# [8] = system: COLO 205 colon
# [9] = system: DU-145 prostate
# [10] = system: EKVX NSCLC
# [11] = system: HCC-2998 colon
# [12] = system: HCT-116 colon
# [13] = system: HCT-15 colon
# [14] = system: HL-60(TB) leukemia
# [15] = system: HOP-62 NSCLC
# [16] = system: HOP-92 NSCLC
# [17] = system: HS 578T breast
# [18] = system: HT29 colon
# [19] = system: IGROV1 ovarian
# [20] = system: K-562 leukemia
# [21] = system: KM12 colon
# [22] = system: LOX IMVI melanoma
# [23] = system: M14 melanoma
# [24] = system: MALME-3M melanoma
# [25] = system: MCF7 breast
# [26] = system: MDA-MB-231 breast
# [27] = system: MDA-MB-435
# [28] = system: MOLT-4 leukemia
# [29] = system: NCI-H226 lung
# [30] = system: NCI-H23 lung
# [31] = system: NCI-H460 lung
# [32] = system: NCI-H522 lung
# [33] = system: NCI/ADR-RES ovarian
# [34] = system: OVCAR-3 ovarian
# [35] = system: OVCAR-4 ovarian
# [36] = system: OVCAR-5 ovarian
# [37] = system: OVCAR-8 ovarian
# [38] = system: PC-3 prostate
# [39] = system: RPMI-8226 leukemia
# [40] = system: RXF 393 renal
# [41] = system: SF-268 CNS
# [42] = system: SF-295 CNS
# [43] = system: SF-539 CNS
# [44] = system: SK-MEL-2 melanoma
# [45] = system: SK-MEL-28 melanoma
# [46] = system: SK-MEL-5 melanoma
# [47] = system: SK-OV-3 ovarian
# [48] = system: SN12C renal
# [49] = system: SNB-19 CNS
# [50] = system: SNB-75 CNS
# [51] = system: SR leukemia
# [52] = system: SW-620 colon
# [53] = system: T-47D breast
# [54] = system: TK-10 renal
# [55] = system: U251 CNS
# [56] = system: UACC-257 melanoma
# [57] = system: UACC-62 melanoma
# [58] = system: UO-31 renal
structure (smiles),measurement,setting,value
CC1(C)CN(c2cc(C(F)(F)F)cc3cncn23)CCC12NC(=O)NC2=O (centres undefined),GI50,[1],32.8 µM
same,TGI,[1],> 100 µM
same,GI50,[2],16.8 µM
same,TGI,[2],55.3 µM
same,GI50,[3],38 µM
same,TGI,[3],> 100 µM
same,GI50,[4],33.7 µM
same,TGI,[4],> 100 µM
same,GI50,[5],23.2 µM
same,TGI,[5],> 100 µM
same,GI50,[6],19.2 µM
same,TGI,[6],92 µM
same,GI50,[7],35.6 µM
same,TGI,[7],> 100 µM
same,GI50,[8],41.9 µM
same,TGI,[8],> 100 µM
same,GI50,[9],56.2 µM
same,TGI,[9],> 100 µM
same,GI50,[10],4.33 µM
same,TGI,[10],40.6 µM
same,GI50,[11],72.5 µM
same,TGI,[11],> 100 µM
same,GI50,[12],26.3 µM
same,TGI,[12],> 100 µM
same,GI50,[13],32.4 µM
same,TGI,[13],> 100 µM
same,GI50,[14],22 µM
same,TGI,[14],48.9 µM
same,GI50,[15],40.3 µM
same,TGI,[15],> 100 µM
same,GI50,[16],20.1 µM
same,TGI,[16],86.5 µM
same,GI50,[17],21.1 µM
same,TGI,[17],90.1 µM
same,GI50,[18],50.9 µM
same,TGI,[18],> 100 µM
same,GI50,[19],30.5 µM
same,TGI,[19],> 100 µM
same,GI50,[20],40.9 µM
same,TGI,[20],> 100 µM
same,GI50,[21],45.1 µM
same,TGI,[21],> 100 µM
same,GI50,[22],30.1 µM
same,TGI,[22],> 100 µM
same,GI50,[23],33.4 µM
same,TGI,[23],> 100 µM
same,GI50,[24],42.3 µM
same,TGI,[24],> 100 µM
same,GI50,[25],24.2 µM
same,TGI,[25],> 100 µM
same,GI50,[26],29.2 µM
same,TGI,[26],> 100 µM
same,GI50,[27],42.2 µM
same,TGI,[27],> 100 µM
same,GI50,[28],24.3 µM
same,TGI,[28],> 100 µM
same,GI50,[29],33.5 µM
same,TGI,[29],> 100 µM
same,GI50,[30],35.5 µM
same,TGI,[30],> 100 µM
same,GI50,[31],40.5 µM
same,TGI,[31],> 100 µM
same,GI50,[32],28.9 µM
same,TGI,[32],> 100 µM
same,GI50,[33],67.5 µM
same,TGI,[33],> 100 µM
same,GI50,[34],38.5 µM
same,TGI,[34],> 100 µM
same,GI50,[35],31.6 µM
same,TGI,[35],> 100 µM
same,GI50,[36],66.1 µM
same,TGI,[36],> 100 µM
same,GI50,[37],36 µM
same,TGI,[37],> 100 µM
same,GI50,[38],24.4 µM
same,TGI,[38],> 100 µM
same,GI50,[39],30.5 µM
same,TGI,[39],> 100 µM
same,GI50,[40],17.5 µM
same,TGI,[40],61.1 µM
same,GI50,[41],38.7 µM
same,TGI,[41],> 100 µM
same,GI50,[42],30.3 µM
same,TGI,[42],> 100 µM
same,GI50,[43],42.5 µM
same,TGI,[43],> 100 µM
same,GI50,[44],32.4 µM
same,TGI,[44],> 100 µM
same,GI50,[45],49.9 µM
same,TGI,[45],> 100 µM
same,GI50,[46],18.1 µM
same,TGI,[46],35.4 µM
same,GI50,[47],36.9 µM
same,TGI,[47],> 100 µM
same,GI50,[48],36.2 µM
same,TGI,[48],> 100 µM
same,GI50,[49],46.8 µM
same,TGI,[49],> 100 µM
same,GI50,[50],16.3 µM
same,TGI,[50],68.5 µM
same,GI50,[51],48.5 µM
same,TGI,[51],> 100 µM
same,GI50,[52],52.6 µM
same,TGI,[52],> 100 µM
same,GI50,[53],21.4 µM
same,TGI,[53],> 100 µM
same,GI50,[54],37.8 µM
same,TGI,[54],> 100 µM
same,GI50,[55],37.5 µM
same,TGI,[55],> 100 µM
same,GI50,[56],52.7 µM
same,TGI,[56],> 100 µM
same,GI50,[57],27.7 µM
same,TGI,[57],> 100 µM
same,GI50,[58],21.1 µM
same,TGI,[58],83.7 µM
COc1cc(/C=N/n2c(-c3ccccc3)n[nH]c2=O)cc(OC)c1OC,TGI,[1],48.2 µM
same,TGI,[2],17.4 µM
same,TGI,[3],> 100 µM
same,TGI,[4],40.5 µM
same,TGI,[5],18.6 µM
same,TGI,[6],21.7 µM
same,TGI,[7],> 100 µM
same,TGI,[8],> 100 µM
same,TGI,[9],> 76.2 µM
same,TGI,[10],> 100 µM
same,TGI,[11],> 100 µM
same,TGI,[12],> 100 µM
same,TGI,[13],> 100 µM
same,TGI,[14],> 100 µM
same,TGI,[15],33.1 µM
same,TGI,[16],> 82.2 µM
same,TGI,[17],20.2 µM
same,TGI,[18],> 100 µM
same,TGI,[19],> 100 µM
same,TGI,[20],> 100 µM
same,TGI,[21],> 100 µM
same,TGI,[22],> 100 µM
same,TGI,[23],> 100 µM
same,TGI,[24],48.8 µM
same,TGI,[25],> 100 µM
same,TGI,[26],> 61.8 µM
same,TGI,[27],6.43 µM
same,TGI,[28],> 100 µM
same,TGI,[29],> 100 µM
same,TGI,[30],> 71.8 µM
same,TGI,[31],> 100 µM
same,TGI,[32],> 58.1 µM
same,TGI,[33],9.96 µM
same,TGI,[34],> 37.5 µM
same,TGI,[35],> 100 µM
same,TGI,[36],> 100 µM
same,TGI,[37],> 100 µM
same,TGI,[38],> 100 µM
same,TGI,[39],> 100 µM
same,TGI,[40],29.8 µM
same,TGI,[41],40.7 µM
same,TGI,[42],18 µM
same,TGI,[43],39.1 µM
same,TGI,[44],> 59 µM
same,TGI,[45],> 100 µM
same,TGI,[46],> 100 µM
same,TGI,[47],> 25 µM
same,TGI,[48],> 100 µM
same,TGI,[49],> 43.1 µM
same,TGI,[50],> 30.2 µM
same,TGI,[51],> 100 µM
same,TGI,[52],> 100 µM
same,TGI,[53],> 100 µM
same,TGI,[54],> 65.9 µM
same,TGI,[55],> 42.3 µM
same,TGI,[56],> 100 µM
same,TGI,[57],> 100 µM
same,TGI,[58],> 100 µM
